# In patent publication US6809091B1, “Substances capable of inducing apoptosis” (Takara Bio Inc., priority 1998, dated 2004):
# Columns and labels:
# [1] = system: human promyelocytic leukemia HL-60; experiment: MTT method: cell growth suppressing / apoptosis-inducing activity; assay type: cell-based; details: for apoptosis-inducing activity / cancer cell growth suppressing activity: HL-60, MTT method of Example 1, 48 hours; for apoptosis-inducing activity of the non-heated solution: HL-60, 48 hours, MTT method
# Description: Heated and non-heated substances of each of them were sterilized by a membrane filter of 0.22 μm to prepare samples for the apoptosis-inducing activity. Those samples were diluted with aseptic distilled water to an extent of 2-, 4-, 8-, 16- and 32-fold, their activity for suppressing the cell growth to the human promyelocytic leukemia HL-60 was measured as follows and their intensity or the apoptosis-inducing activity was compared.
# Thus, 10 μl of each of the diluted solutions or 10 μl of aseptic distilled water were placed in a well of a 96-well microtiter plate. Then 90 μl of an RPMI 1640 medium (manufactured by Nissui) containing 10% of fetal bovine serum (manufactured by Gibco) which contained 5000 HL-60 cells (ATCC CCL240) were added thereto and an incubation was carried out at 37° C. for 48 hours in the presence of 5% carbon dioxide gas. After observing the shape of the cells under an optical microscope, 10 μl of a phosphate-buffered aqueous saline solution containing 5 mg/ml of 3-(4,5-dimethylthiazol-2-yl)-2,5-diphenyltetrazolium bromide (MTT; manufactured by Sigma), an incubation was continued for four hours more and state of growth of cells and formation of formazan produced in the cells were observed under a microscope. Further, 100 μl of 2-propanol containing 0.04N HCl were added thereto followed by well stirring and the absorbance at 590 nm was measured and used as a degree of growth of cells (an MTT method).
# The solvent of the fraction was appropriately evaporated to substitute with a 50% aqueous solution of ethanol and the activity for suppressing the growth of cancer cells was measured by an MTT method mentioned in Example 1 except that the sample was diluted to a two-fold series using a 50% aqueous solution of ethanol and 2 μl of each of the diluted solutions or 2 μl of a 50% aqueous solution of ethanol were placed in a well of a flat-bottom 96-well microplate. Time for incubation was 16 hours.
# HL-60 cells [2] = experiment: observation of apoptosis under an optical microscope; assay type: cell-based, human; details: HL-60, 24 hours
# Description: (1) HL-60 cells (ATCC CCL-240) incubated at 37° C. in an RPMI 1640 medium (manufactured by BioWhittaker) containing 10% of fetal bovine serum (manufactured by JRH) treated at 56° C. for 30 minutes were suspended in an RPMI 1640 medium to make the concentration 2.5×10^5 cells/5 ml.
# To 5 ml of this suspension were added 10 μl of 12.5 mM, 25 mM, 50 mM or 100 mM of a 70% ethanolic solution of 4,5-dihydroxy-2-pentenal prepared in Example 6-(1), 0.05 mM, 0.5 mM, 5 mM or 50 mM of a 70% ethanolic solution of 4-hydroxy-2-cyclopenten-1-[…] prepared in Example 6-(1), 5 mM, 10 mM or 20 mM of a 70% ethanolic solution of 4-(9-adeninyl)-2-cyclopenten-1-one prepared in Example 4-(4), 2.5 mM, 5 mM, 15 mM or 25 mM of a 70% ethanolic solution of 4-(9-guaninyl)-2-cyclopenten-1-one prepared in Example 4-(5), 75 mM, 150 mM or 300 mM of a 70% ethanolic solution of 1,5-epoxy-1-hydroxy-3-penten-2-one prepared in Example 5-(2) or 5 mM, 25 mM or 50 mM of a 70% ethanolic solution of 2-(trans-3,4-dihydroxy-1-butenyl)-4-(trans-2-formylvinyl)-1,3-dioxolane prepared in Example 6-(2) followed by incubating at 37° C. in the presence of 5% carbon dioxide gas for 24 hours.
# Incidentally, such phenomena were not noted in the incubated cells to which […] of 70% ethanolic solution were added used as a control.
# HL-60 cells [3] = experiment: measurement of apoptosis cells using FACScan; assay type: cell-based, human; details: HL-60, 24 hours and 48 hours
# Description: (2) HL-60 cells which were incubated on an RPMI 1640 medium containing 10% of fetal bovine serum processed at 56° C. for 30 minutes were suspended in an RPMI 1640 medium to make 2.5×10^5 cells/5 ml. […]
# HL-60 cells [4] = experiment: Trypan Blue staining, survival rate; assay type: cell-based; details: Homo sapiens, HL-60, 24 hours, concentration where survival rate becomes 50%, read-out: Survival Rate50
# Description: (3) The cells which were incubated for 24 hours by the same manner as in Example 9-(2) were stained with 0.4% Trypan Blue and observed under an optical microscope, numbers of viable cells which were not stained and of dead cells which were stained in blue were measured, concentration (survival rate50) of each of the samples where survival rate becomes 50% was determined and the result is given in Table 1.
# HL-60 cells [5] = experiment: analysis of fragmentation of DNA; assay type: cell-based, human
# Description: (2) HL-60 cells which were incubated on an RPMI 1640 medium containing 10% of fetal bovine serum processed at 56° C. for 30 minutes were suspended in an RPMI 1640 medium to make 2.5×10^5 cells/5 ml.
# To 5 ml the suspension were added 10 μl of 12.5 mM, 25 mM, 50 mM or 100 mM of a 70% ethanolic solution of 4,5-dihydroxy-2-pentenal, 0.05 mM, 0.5 mM, 5 mM or 50 mM of a 70% ethanolic solution of 4-hydroxy-2-cyclopenten-1-one, 5 mM, 10 mM or 20 mM of a 70% ethanolic solution of 4-(9-adeninyl)-2-cyclopenten-1-one prepared in Example 4-(4), 2.5 mM, 5 mM, 15 mM or 25 mM of a 70% ethanolic solution of 4-(9-guaninyl)-2-cyclopenten-1-one prepared in Example 4-(5) 75 mM, 150 mM or 300 mM of a 70% ethanolic solution of 1,5-epoxy-1-hydroxy-3-penten-2-one prepared in Example 5-(2) or 5 mM, 25 mM or 50 mM of a 70% ethanolic solution of 2-(trans-3,4-dihydroxy-1-butenyl)-4-(trans-2-formylvinyl)-1,3-dioxolane prepared in Example 6-(2) followed by incubating at 37° C. in the presence of 5% of carbon dioxide gas for 24 hours and 48 hours and the resulting cells were subjected to a measurement of apoptosis cells using FACScan by a method mentioned in pages 129-130 of “Experimental Protocol Series—Apoptosis Experiment Protocol” which was an extra issue of “Saibo Kogaku (Cell Technology)” (published by Shujunsha in 1994) and also to a measurement of analysis of fragmentation of DNA by a method mentioned in page 61-63 of “Biomanual UP Series—New Experimental Methods for Apoptosis” (published by Yodosha in 1995).
structure (smiles),measurement,setting,value
"NC(CCC(=O)NC(CSC1CC(=O)CC1O)C(=O)NCC(=O)O)C(=O)O (single isomer, unassigned) [peak 1]",apoptosis-inducing activity / cancer cell growth suppressing activity,[1],noted
"NC(CCC(=O)NC(CSC1CC(=O)CC1O)C(=O)NCC(=O)O)C(=O)O (single isomer, unassigned) [peak 3]",apoptosis-inducing activity / cancer cell growth suppressing activity,[1],noted
"O=C1C=CCOC1O (centres unmarked) [1,5-epoxy-1-hydroxy-3-penten-2-one]","final concentration at which aggregation of nuclei, reduction in size of the cells and formation of apoptic body were confirmed",HL-60 cells [2],≥ 625 µM
same,final concentration at which apoptosis cells were confirmed,HL-60 cells [3],≥ 600 µM
same,IC50,HL-60 cells [4],438 µM
O=CC[C@H](O)[C@H](O)CO [2-deoxy-D-ribose],apoptosis-inducing activity of the non-heated solution,[1],no apoptosis-inducing activity
"O=C1C=CC(O)C1O (centres unmarked) [4,5-dihydroxy-2-cyclopenten-1-one]",cancer cell growth suppressing activity and apoptic body formation,"[1]; HL-60, MTT method of Example 4-(2), sample in 50% ethanol, 16 hours",confirmed
Nc1ncnc2c1ncn2C1C=CC(=O)C1 (centres unmarked) [4-(9-adeninyl)-2-cyclopenten-1-one],fragmentation of DNA,"HL-60 cells [5]; HL-60, 10 μM final concentration",confirmed
same,fragmentation of DNA,"HL-60 cells [5]; HL-60, 30 μM final concentration",confirmed
same,IC50,HL-60 cells [4],22.4 µM
O=C[C@H](O)[C@@H](O)[C@H](O)CO [D(+)-xylose],apoptosis-inducing activity of the non-heated solution,[1],no apoptosis-inducing activity
O=C[C@@H](O)[C@H](O)[C@H](O)CO [D-(−)-arabinose],apoptosis-inducing activity of the non-heated solution,[1],no apoptosis-inducing activity
O=C[C@H](O)[C@@H](O)[C@@H](O)CO [L(+)-arabinose],apoptosis-inducing activity of the non-heated solution,[1],no apoptosis-inducing activity
"O=C[C@H](O)[C@H](O)[C@H](O)CO [non-heated aqueous solution of D-ribose, D-ribose]",apoptosis-inducing activity of the non-heated solution,[1],no apoptosis-inducing activity
